From patent EP1561465A2, “Methods of use of fluoroquinolone compounds against bacteria” (LG Life Sciences, Ltd., priority 1999, dated 2001)
Converted amounts (≈) assume the structure as drawn. Like-named read-outs stand apart in the source and are kept apart here.

How the values were obtained:
[1] = system: Mycobacterium tuberculosis (MTB); assay: MIC by proportions method (NCCLS M24-T, 1995), 82 MTB strains; type: cell-based; details: Mycobacterium tuberculosis; 82 MTB strains
Yersinia enterocolitica = assay: MIC by agar dilution (NCCLS M7-A4), 288 enteropathogenic isolates, eight quinolones; type: cell-based; details: Yersinia enterocolitica (n = 22)
Acinetobacter spp. = assay: MIC by agar dilution (NCCLS), 322 nosocomial Gram negative isolates, Athens 1998; type: cell-based; details: n = 38 strains
Campylobacter jejuni [2] = assay: MIC by agar dilution (NCCLS M7-A4), 288 enteropathogenic isolates, gemifloxacin and 15 other antimicrobials; details: Campylobacter jejuni
Hafnia alvei = assay: MIC by agar dilution (NCCLS M7-A4), 288 enteropathogenic isolates, eight quinolones; type: cell-based; details: Hafnia alvei (n = 32)
Campylobacter jejuni [3] = assay: MIC by agar dilution (NCCLS M7-A4), 5% sheep blood, microaerophilic 48 h; type: cell-based; details: Campylobacter jejuni (n=91)
Staphylococcus aureus = assay: MIC by agar dilution (NCCLS), 411 isolates Buenos Aires 1998-99; type: cell-based; details: for MIC90: Staphylococcus aureus
Streptococcus pneumoniae [4] = assay: as above; type: cell-based; details: for MIC / MIC90: Streptococcus pneumoniae; for MIC: Ciprofloxacin-resistant S. pneumoniae, read-out: MIC; for MIC90: read-out: MIC90
Streptococcus pneumoniae [5] = assay: MIC by broth microdilution (NCCLS), dried MicroScan panels, clinical isolates 1998-1999; type: cell-based; details: for MIC90: Streptococcus pneumoniae
[6] = S. aureus, Methicillin resistant (n = 14)
[7] = Streptococcus pneumoniae (n = 90)
[8] = Streptococcus pneumoniae (302 isolates)

Structure (SMILES): CC1COc2c(N3CCN(C)CC3)c(F)cc3c(=O)c(C(=O)O)cn1c23 (centres unmarked) [Ofloxacin, ofloxacin]
- MIC90 [1]: 2 µg/mL (≈ 5.53 µM)
- % Susceptible (Yersinia enterocolitica): 100%
- MIC50 (Yersinia enterocolitica): 0.12 µg/mL (≈ 0.332 µM)
- MIC90 (Yersinia enterocolitica): 0.12 µg/mL (≈ 0.332 µM)
- MIC Range (Yersinia enterocolitica): 0.03 to 0.5 µg/mL
- MIC50 (Acinetobacter spp.; Acinetobacter): 8 µg/mL (≈ 22.1 µM)
- MIC90 (Acinetobacter spp.; Acinetobacter): 64 µg/mL (≈ 177 µM)
- MIC Range (Acinetobacter spp.): 0.125 to 64 µg/mL
- MIC (Campylobacter jejuni [2]; read-out: MIC (mg/L) 50%): 16 mg/L (≈ 44.3 µM)
- MIC (Campylobacter jejuni [2]; read-out: MIC (mg/L) 90%): 32 mg/L (≈ 88.6 µM)
- % Susceptible (Hafnia alvei): 100%
- MIC50 (Hafnia alvei): 0.03 µg/mL (≈ 0.083 µM)
- MIC90 (Hafnia alvei): 0.03 µg/mL (≈ 0.083 µM)
- MIC Range (Hafnia alvei): 0.03 µg/mL (≈ 0.083 µM)
- % Susceptible (Campylobacter jejuni [3]): 31.86%
- MIC50 (Campylobacter jejuni [3]): 16 µg/mL (≈ 44.3 µM)
- MIC90 (Campylobacter jejuni [3]): 32 µg/mL (≈ 88.6 µM)
- Resistance (%) (Staphylococcus aureus; [6]): 100%
- Resistance (%) (Staphylococcus aureus; S. aureus, Methicillin susceptible (n = 66)): 0%
- MIC90 (Staphylococcus aureus; [6]): 16 µg/mL (≈ 44.3 µM)
- MIC90 (Staphylococcus aureus; Staphylococcus aureus (n = 80)): 8 µg/mL (≈ 22.1 µM)
- MIC Range (Streptococcus pneumoniae [4]; [7]): 1 to 16 µg/mL
- MIC (Streptococcus pneumoniae [4]; Strain 1): 2 µg/mL (≈ 5.53 µM)
- MIC (Streptococcus pneumoniae [4]; Strain 2): 2 µg/mL (≈ 5.53 µM)
- MIC (Streptococcus pneumoniae [4]; Strain 3): 16 µg/mL (≈ 44.3 µM)
- MIC (Streptococcus pneumoniae [4]; Strain 4): 8 µg/mL (≈ 22.1 µM)
- MIC90 (Streptococcus pneumoniae [4]; S. pneumoniae, Penicillin intermediate (n = 17)): 2 µg/mL (≈ 5.53 µM)
- MIC90 (Streptococcus pneumoniae [4]; S. pneumoniae, Penicillin resistant (n = 4)): 1 µg/mL (≈ 2.77 µM)
- MIC90 (Streptococcus pneumoniae [4]; S. pneumoniae, Penicillin susceptible (n = 69)): 2 µg/mL (≈ 5.53 µM)
- MIC90 (Streptococcus pneumoniae [4]; [7]): 2 µg/mL (≈ 5.53 µM)
- MIC50 (Streptococcus pneumoniae [5]; [8]): 2 µg/mL (≈ 5.53 µM)
- MIC Range (Streptococcus pneumoniae [5]; [8]): ≤0.06 to 4 µg/mL
- MIC90 (Streptococcus pneumoniae [5]; Erythromycin-resistant (86)): 2 µg/mL (≈ 5.53 µM)
- MIC90 (Streptococcus pneumoniae [5]; Erythromycin-sensitive (216)): 4 µg/mL (≈ 11.1 µM)
- MIC90 (Streptococcus pneumoniae [5]; Penicillin-intermediate (124)): 4 µg/mL (≈ 11.1 µM)
- MIC90 (Streptococcus pneumoniae [5]; Penicillin-resistant (80)): 2 µg/mL (≈ 5.53 µM)
- MIC90 (Streptococcus pneumoniae [5]; Penicillin-sensitive (98)): 2 µg/mL (≈ 5.53 µM)
- MIC90 (Streptococcus pneumoniae [5]; [8]): 4 µg/mL (≈ 11.1 µM)
